# Experimental data taken from patent US4438120A, “Pyridoindolobenzodiazepine tranquilizers” (E. I. Du Pont de Nemours & Company, priority 1982, dated 1984).
# System: Conditioned Avoidance Response (CAR)
# Assay: Conditioned Avoidance Response (CAR) test in mice, oral
# Format: in vivo, mouse (female white mice)
# Settings: female white mice, moving average method
# Protocol: The paradigm used for predicting tranquilizer activity was a Conditioned Avoidance Response (CAR) test in mice. Female white mice, 19-23 g, were used. The apparatus modified from Bovet, D. et al., Science, 163, 139-149 (1969), was a one-way shuttlebox with 0.4 mA scrambled electric footshock as unconditioned stimulus (US) and a 6 watt white light plus a relay buzzer as conditioned stimuli (CS). Mice were conditioned by three sets of 1-5 trials on day 1, then were fasted for 17-21 hours. The conditioned mice were tested for retention of the conditioned response on day 2, and then were dosed orally with test drug at doses such as 0, 1, 3, 9, 27 and 81 mg/kg. ED50 values (doses at which 50% of the animals would be expected to show response failure) were calculated by the moving average method [Thompson, W. R., Bact. Rev., 11, 115 (1947)].
row,Compound,"Mouse CAR ED50 (avoidance ED50, dose at which 50% of the animals would be expected to show response failure) [mg/kg]"
1,Cc1ccc2c(c1)C(=O)Nc1ccc(Cl)c3c4c(n-2c13)CCN(C)C4 [Example 19],> 81
2,CCCCCCN1CCc2c(c3cccc4c3n2-c2ccc(Cl)cc2C(=O)N4)C1 [Example 43],> 81
3,Clc1ccc2c(c1)CNc1cccc3c1N2[C@@H]1CCN(CC2CC2)C[C@@H]31 (relative stereo) [Example 109],2.1
4,CN1CC[C@@H]2[C@@H](C1)c1cccc3c1N2c1ccccc1CN3 (relative stereo) [Example 97],9.0
